Assay results as given in patent US20260364080A1, “PYRAZOLO-PYRIMIDINONE COMPOUNDS FOR USE IN METHODS OF INHIBITING WEE1 A KINASE” (Acrivon Therapeutics, Inc., priority 2023, published 2026).

Legend:
[1] = biological target: T1, recombinant human Wee1A kinase (Homo sapiens, UniProt P30291); test: Wee1A kinase binding assay (LanthaScreen Eu time-resolved FRET); details: 30 nM tracer 178, 5 nM Wee1A kinase, 2 nM Eu-labeled antibody; 60 minutes at room temperature; read-out: Wee1A kinase Binding IC50
T1 construct: full length Wee1 kinase was expressed by baculovirus in insect cells; purchased Invitrogen PV3817; host or cells: insect cells (baculovirus)
In short: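 Full-length, baculovirus-expressed GST-tagged Wee1A (5 nM) was mixed with 2 nM Eu-anti-GST antibody, 30 nM kinase tracer 178 and compound (1% DMSO). Buffer was 50 mM HEPES pH 7.5, 10 mM MgCl2, 1 mM EGTA, 0.01% Brij-35, incubated 60 min at room temperature. TR-FRET 665/615 nm emission ratios from duplicates were curve-fitted.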

[2] = biological target: T2, Myt1 kinase (recombinant PMYT-1) (Homo sapiens, UniProt Q99640); test: Myt1 kinase binding assay (LanthaScreen Eu Kinase Binding Assay); details: 3 nM tracer 178, 2.5 nM PMYT-1, 1 nM Eu-labeled antibody; read-out: Myt1 kinase Binding IC50
T2 construct: full length PMYT-1 was expressed by baculovirus in insect cells; purchased Invitrogen A30984; host or cells: insect cells (baculovirus)
T2 sequence (Q99640 1-499): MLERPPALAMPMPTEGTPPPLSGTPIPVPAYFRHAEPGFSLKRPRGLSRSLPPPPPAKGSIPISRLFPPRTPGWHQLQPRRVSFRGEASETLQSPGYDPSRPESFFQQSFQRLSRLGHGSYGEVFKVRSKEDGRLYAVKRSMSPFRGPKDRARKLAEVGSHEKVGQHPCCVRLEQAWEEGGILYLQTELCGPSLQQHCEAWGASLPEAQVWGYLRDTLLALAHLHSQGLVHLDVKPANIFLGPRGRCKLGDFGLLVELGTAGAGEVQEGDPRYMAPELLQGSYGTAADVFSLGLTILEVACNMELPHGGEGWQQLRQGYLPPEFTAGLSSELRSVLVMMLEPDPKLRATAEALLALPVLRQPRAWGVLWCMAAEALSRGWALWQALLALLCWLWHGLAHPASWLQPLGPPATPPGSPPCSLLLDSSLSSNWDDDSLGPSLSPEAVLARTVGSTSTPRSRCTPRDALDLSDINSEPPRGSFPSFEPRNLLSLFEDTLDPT
In short: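 Compound binding to Myt1 kinase was assessed using the LanthaScreen Eu Kinase Binding Assay. This europium-based binding format was applied to quantify how strongly each compound bound to the Myt1 enzyme, and the binding affinity was reported for each compound as an IC50 value.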

[3] = biological target: T3, Wee1A kinase (CDK1 Tyr15 phosphorylation in ACHN renal cell carcinoma cells) (Homo sapiens, UniProt P30291); test: High-content imaging of pCdk1 Y15, Wee1A kinase target engagement in ACHN cells; format: cell-based; details: 4 h treatment, nuclear positivity for pCdk1 Y15 vs DMSO control, read-out: CDK1 Tyr15 Phosphorylation EC50
T3 construct: pCDK1 Tyr15 immunofluorescence read-out
In short: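 EC50 values come from the per-well fraction of cells with nuclear pCdk1 Y15 staining, normalised to DMSO control, by automated immunofluorescence imaging. Cells were ACHN renal carcinoma, treated 4 h with compound at 7–5,000 nM or 0.3–200 nM.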

ACHN cells = test: Cell Titer Glo viability assay, ACHN cells; format: cell-based; details: Homo sapiens, 144 h, absolute EC50
In short: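 Cells grown in MEM with 10% FCS were seeded at 500 (A427), 400 (ACHN) or 250 (DAOY) per well and treated the next day with compound at 17 to 10 000 nM. Viability relative to untreated control was read at 144 h by CellTiter-Glo 2.0.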

[4] = biological target: T4, Myt1 kinase (CDK1 Thr14 phosphorylation in DAOY medulloblastoma cells) (Homo sapiens, UniProt Q99640); test: AlphaLISA assay, Myt1 kinase target engagement (phospho-CDK1 Thr14) in DAOY cells; format: cell-based; details: 4 h treatment, read-out: CDK1 Thr14 Phosphorylation EC50
T4 construct: pCDK1 Thr14 AlphaLISA read-out
T4 sequence (Q99640 1-499): T2 sequence (Q99640 1-499)
In short: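 Cells seeded at 10,000 (DAOY) or 20,000 (ACHN) per well, treated 24 h later for 4 h with compound at 7–5000 nM. Lysates analysed by AlphaLISA SureFire Ultra phospho-CDK1 (Thr14) with donor/acceptor beads; EC50 from dose-response curves.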

DAOY cells = test: Cell Titer Glo viability assay, DAOY cells; format: cell-based; details: Homo sapiens, 144 h, absolute EC50
Description: (§1) Each of an ACHN renal cell carcinoma cell line (ATCC) and a DAOY medulloblastoma cell line, and an A427 lung cancer line were cultured in Minimum Essential Medium Eagle supplemented with 10% fetal calf serum (Sigma), 1% Penicillin-Streptomycin and 10 mM HEPES buffer (HyClone). Cell cultures were kept in a humidified incubator at 37 °C and 5% CO2. Cells were routinely tested for Mycoplasma contamination.
ACHN cells, DAOY cells, or A427 cells were seeded at a density of 400, 250, or 500 cells per well respectively, in tissue culture treated 384 well plates (Corning Costar). After overnight incubation, cells were treated with drugs at concentrations ranging from 17 to 10 000 nM. Viability compared to untreated control was assessed at 144 h using Cell Titer Glo assay 2.0 (Promega). […] “NT” means the compounds was not tested in the indicated cells.

[5] = biological target: T5, Myt1 kinase (CDK1 Thr14 phosphorylation in ACHN renal cell carcinoma cells) (Homo sapiens, UniProt Q99640); test: AlphaLISA assay, Myt1 kinase target engagement (phospho-CDK1 Thr14) in ACHN cells; format: cell-based; details: ACHN cells (marked *); 4 h treatment
T5 construct: pCDK1 Thr14 AlphaLISA read-out
T5 sequence (Q99640 1-499): T2 sequence (Q99640 1-499)
Description: as §1
For target engagement assessment of Myt1 kinase inhibition, quantification of Cdk1 phosphorylated on threonine 14 was detected using the AlphaLISA® SureFire® Ultra™ Human Phospho-CDK1 (Thr14) assay (Perkin Elmer). DAOY or ACHN cells were seeded into tissue culture treated 96-well plates (VWR) to a density of 10,000 or 20,000 cells per well respectively. 24 h post seeding cells were treated for 4 h with compounds at concentrations ranging from 7 to 5000 nM. Cells were washed with PBS and lysed in 50 μl AlphaLISA lysis buffer before freezing at −80 C. Ten ul of the lysate was transferred to 384 well plates and incubated with AlphaLISA donor and acceptor beads according to the manufacturer's instructions. Dose response curves and EC50 values were calculated and visualized using GraphPad Prism version 9. Target engagement for Myt1 kinase can also be measured using the same AlphaLISA assay in OVCAR3 cells, an ovarian cancer cell line. NIH:OVCAR-3 (OVCAR3) cells are cultured in RPMI-1640 medium supplemented with 0.01 mg/ml insulin, 20% FBS, 1% Penicillin-Streptomycin and 10 mM HEPES buffer. 14,000 cells per well are seeded into 96 well tissue culture plates in full medium. Twenty-four hours post seeding, cells are treated with compound for 4 hours at concentrations ranging from 0.017 nM to 1000 nM.

T3 sequence (P30291 whole entry): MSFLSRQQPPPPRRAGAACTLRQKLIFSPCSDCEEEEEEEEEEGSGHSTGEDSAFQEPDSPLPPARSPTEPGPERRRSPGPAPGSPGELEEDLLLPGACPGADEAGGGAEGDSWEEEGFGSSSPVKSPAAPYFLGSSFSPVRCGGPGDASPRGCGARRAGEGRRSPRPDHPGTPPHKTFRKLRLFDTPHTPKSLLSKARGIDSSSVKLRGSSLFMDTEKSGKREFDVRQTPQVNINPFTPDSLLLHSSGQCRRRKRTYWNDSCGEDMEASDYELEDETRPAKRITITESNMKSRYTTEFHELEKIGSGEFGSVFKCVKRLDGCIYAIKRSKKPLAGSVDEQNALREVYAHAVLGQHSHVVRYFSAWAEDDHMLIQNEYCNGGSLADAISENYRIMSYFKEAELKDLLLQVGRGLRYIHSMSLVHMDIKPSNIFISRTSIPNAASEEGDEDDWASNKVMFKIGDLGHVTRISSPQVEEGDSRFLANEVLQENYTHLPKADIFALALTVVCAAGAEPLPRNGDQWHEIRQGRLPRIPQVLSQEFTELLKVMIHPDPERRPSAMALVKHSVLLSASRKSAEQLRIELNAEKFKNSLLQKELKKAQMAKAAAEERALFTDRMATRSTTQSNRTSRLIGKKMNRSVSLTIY
T1 sequence (P30291 whole entry): as above

IC50 [1]	IC50 [2]	EC50 [3]	EC50 (ACHN cells)	EC50 [4]	EC50 [5]	Compound	EC50 (DAOY cells)
< 10 nM	20 to 100 nM	< 100 nM	≤ 100 nM	200 to 500 nM	–	C=CCn1c(=O)c2cnc(Nc3ccc4c(cnn4C)c3)nc2n1-c1cccc(OC2CCNCC2)n1 [Compound 106, 2-allyl-6-(1-methyl-1H-indazol-5-ylamino)-1-[6-(4-piperidyloxy)-2-pyridyl]-1,2-dihydro-3H-1,2,5,7-tetraazainden-3-one]	100 to 500 nM
< 10 nM	< 20 nM	< 100 nM	≤ 100 nM	–	< 200 nM	C=CCn1c(=O)c2cnc(Nc3ccc4c(cnn4CCC)c3)nc2n1-c1cccc(OC2CCN(C)CC2)n1 [Compound 385, 2-allyl-1-[6-(1-methyl-4-piperidyloxy)-2-pyridyl]-6-(1-propyl-1H-indazol-5-ylamino)-1,2-dihydro-3H-1,2,5,7-tetraazainden-3-one]	–
< 10 nM	< 20 nM	< 100 nM	≤ 100 nM	–	< 200 nM	C=CCn1c(=O)c2cnc(Nc3ccc4c(cnn4C4CC4)c3)nc2n1-c1cccc(OC2CCN(C)CC2)n1 [Compound 386, 2-allyl-6-((1-cyclopropyl-1H-indazol-5-yl)amino)-1-(6-((1-methylpiperidin-4-yl)oxy)pyridin-2-yl)-1,2-dihydro-3H-pyrazolo[3,4-d]pyrimidin-3-one]	–
< 10 nM	20 to 100 nM	< 100 nM	≤ 100 nM	–	< 200 nM	C=CCn1c(=O)c2cnc(Nc3ccc4c(cnn4CCCF)c3)nc2n1-c1cccc(OC2CCN(C)CC2)n1 [Compound 387, 2-allyl-6-((1-(3-fluoropropyl)-1H-indazol-5-yl)amino)-1-(6-((1-methylpiperidin-4-yl)oxy)pyridin-2-yl)-1,2-dihydro-3H-pyrazolo[3,4-d]pyrimidin-3-one]	–
< 10 nM	20 to 100 nM	< 100 nM	≤ 100 nM	–	< 200 nM	C=CCn1c(=O)c2cnc(Nc3ccc(OCCF)cc3)nc2n1-c1ccnc(OC2CCN(C)CC2)n1 [Compound 388, 2-allyl-6-((4-(2-fluoroethoxy)phenyl)amino)-1-(2-((1-methylpiperidin-4-yl)oxy)pyrimidin-4-yl)-1,2-dihydro-3H-pyrazolo[3,4-d]pyrimidin-3-one]	–
< 10 nM	< 20 nM	< 100 nM	≤ 100 nM	–	< 200 nM	C=CCn1c(=O)c2cnc(Nc3ccc4c(cnn4CCC)c3)nc2n1-c1cccc(OC2CCNCC2)n1 [Compound 390, 2-allyl-1-[6-(4-piperidyloxy)-2-pyridyl]-6-(1-propyl-1H-indazol-5-ylamino)-1,2-dihydro-3H-1,2,5,7-tetraazainden-3-one]	–
< 10 nM	20 to 100 nM	< 100 nM	≤ 100 nM	–	< 200 nM	C=CCn1c(=O)c2cnc(Nc3ccc4c(ccn4C(C)=O)c3)nc2n1-c1cccc(OC2CCN(C)CC2)n1 [Compound 392, 6-((1-acetyl-1H-indol-5-yl)amino)-2-allyl-1-(6-((1-methylpiperidin-4-yl)oxy)pyridin-2-yl)-1,2-dihydro-3H-pyrazolo[3,4-d]pyrimidin-3-one]	–
< 10 nM	< 20 nM	< 100 nM	≤ 100 nM	–	< 200 nM	C=CCn1c(=O)c2cnc(Nc3ccc4c(cnn4CC(C)C)c3)nc2n1-c1cccc(OC2CCN(C)CC2)n1 [Compound 394, 2-allyl-6-((1-isobutyl-1H-indazol-5-yl)amino)-1-(6-((1-methylpiperidin-4-yl)oxy)pyridin-2-yl)-1,2-dihydro-3H-pyrazolo[3,4-d]pyrimidin-3-one]	–
< 10 nM	< 20 nM	< 100 nM	≤ 100 nM	–	< 200 nM	C=CCn1c(=O)c2cnc(Nc3ccc4nn(C(C)(C)C)cc4c3)nc2n1-c1cccc(OC2CCN(C)CC2)n1 [Compound 396, 2-allyl-6-((2-(tert-butyl)-2H-indazol-5-yl)amino)-1-(6-((1-methylpiperidin-4-yl)oxy)pyridin-2-yl)-1,2-dihydro-3H-pyrazolo[3,4-d]pyrimidin-3-one]	–
< 10 nM	20 to 100 nM	< 100 nM	≤ 100 nM	–	500 to 1000 nM	C=CCn1c(=O)c2cnc(Nc3ccc4c(cnn4CCCF)c3)nc2n1-c1cccc(OC2CCNCC2)n1 [Compound 397, 2-allyl-6-((1-(3-fluoropropyl)-1H-indazol-5-yl)amino)-1-(6-(piperidin-4-yloxy)pyridin-2-yl)-1,2-dihydro-3H-pyrazolo[3,4-d]pyrimidin-3-one]	–
< 10 nM	20 to 100 nM	< 100 nM	≤ 100 nM	–	200 to 500 nM	C=CCn1c(=O)c2cnc(Nc3ccc4cn(C)nc4c3)nc2n1-c1cccc(OC2CCN(C)CC2)n1 [Compound 398, 2-allyl-6-((2-methyl-2H-indazol-6-yl)amino)-1-(6-((1-methylpiperidin-4-yl)oxy)pyridin-2-yl)-1,2-dihydro-3H-pyrazolo[3,4-d]pyrimidin-3-one]	–
< 10 nM	< 20 nM	< 100 nM	≤ 100 nM	–	200 to 500 nM	C=CCn1c(=O)c2cnc(Nc3ccc4c(c3)ncn4C(C)C)nc2n1-c1cccc(OC2CCN(C)CC2)n1 [Compound 400, 2-allyl-6-((1-isopropyl-1H-benzo[d]imidazol-5-yl)amino)-1-(6-((1-methylpiperidin-4-yl)oxy)pyridin-2-yl)-1,2-dihydro-3H-pyrazolo[3,4-d]pyrimidin-3-one]	–
